The structures appear in SMILES notation.

In general, IC50 refers to the concentration needed to halve the response being measured.

One test concerns the target T1, Cav3.1 channel (Homo sapiens, UniProt O43497).
T1 construct: replaced with a Cav3.1 channel ORF gene; expressed in transfected cells
Kind of test: Cav3.1 channel blocking action, as the Cav3.2 test but with the Cav3.1 channel ORF gene and 1.0 mM CaCl2 in the buffers. As to conditions: Cav3.1 channel ORF gene; CaCl2 1.0 mM in buffer A and buffer B. It counts as cell-based.

For another test, the target named is T2, human Cav3.2 channels (Homo sapiens, UniProt O95180).
T2 construct: human Cav3.2 channel ORF (Open Reading Frame) gene; expressed in transfected cells; host or cells: HEK293 cells (ATCC No. CRL-1573), pcDNA3.1(+) plasmid
Kind of test: T-type calcium blocking action: intracellular calcium (Fluo-4 AM fluorescence) in HEK293 cells steadily expressing human Cav3.2 channels. It is filed as cell-based. As to conditions: HEK293 cells expressing human Cav3.2; KCl-stimulated calcium influx, Fluo-4 fluorescence; Tables 1 to 3. Summed up:
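Fluo-4 AM-loaded stable HEK293 cells were preincubated 15 min at RT with compound (0.1% DMSO final) in choline-based buffer (pH 7.3). Gramicidin was added, then KCl-induced calcium influx was read at 485/510 nm for 10 s. Percent block came from peak rise over baseline, and IC50 from log-concentration plots.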
Background: Calcium assays in cells follow changes in intracellular calcium, usually with a dye or a luminescent sensor.

T2 sequence (O95180 whole entry): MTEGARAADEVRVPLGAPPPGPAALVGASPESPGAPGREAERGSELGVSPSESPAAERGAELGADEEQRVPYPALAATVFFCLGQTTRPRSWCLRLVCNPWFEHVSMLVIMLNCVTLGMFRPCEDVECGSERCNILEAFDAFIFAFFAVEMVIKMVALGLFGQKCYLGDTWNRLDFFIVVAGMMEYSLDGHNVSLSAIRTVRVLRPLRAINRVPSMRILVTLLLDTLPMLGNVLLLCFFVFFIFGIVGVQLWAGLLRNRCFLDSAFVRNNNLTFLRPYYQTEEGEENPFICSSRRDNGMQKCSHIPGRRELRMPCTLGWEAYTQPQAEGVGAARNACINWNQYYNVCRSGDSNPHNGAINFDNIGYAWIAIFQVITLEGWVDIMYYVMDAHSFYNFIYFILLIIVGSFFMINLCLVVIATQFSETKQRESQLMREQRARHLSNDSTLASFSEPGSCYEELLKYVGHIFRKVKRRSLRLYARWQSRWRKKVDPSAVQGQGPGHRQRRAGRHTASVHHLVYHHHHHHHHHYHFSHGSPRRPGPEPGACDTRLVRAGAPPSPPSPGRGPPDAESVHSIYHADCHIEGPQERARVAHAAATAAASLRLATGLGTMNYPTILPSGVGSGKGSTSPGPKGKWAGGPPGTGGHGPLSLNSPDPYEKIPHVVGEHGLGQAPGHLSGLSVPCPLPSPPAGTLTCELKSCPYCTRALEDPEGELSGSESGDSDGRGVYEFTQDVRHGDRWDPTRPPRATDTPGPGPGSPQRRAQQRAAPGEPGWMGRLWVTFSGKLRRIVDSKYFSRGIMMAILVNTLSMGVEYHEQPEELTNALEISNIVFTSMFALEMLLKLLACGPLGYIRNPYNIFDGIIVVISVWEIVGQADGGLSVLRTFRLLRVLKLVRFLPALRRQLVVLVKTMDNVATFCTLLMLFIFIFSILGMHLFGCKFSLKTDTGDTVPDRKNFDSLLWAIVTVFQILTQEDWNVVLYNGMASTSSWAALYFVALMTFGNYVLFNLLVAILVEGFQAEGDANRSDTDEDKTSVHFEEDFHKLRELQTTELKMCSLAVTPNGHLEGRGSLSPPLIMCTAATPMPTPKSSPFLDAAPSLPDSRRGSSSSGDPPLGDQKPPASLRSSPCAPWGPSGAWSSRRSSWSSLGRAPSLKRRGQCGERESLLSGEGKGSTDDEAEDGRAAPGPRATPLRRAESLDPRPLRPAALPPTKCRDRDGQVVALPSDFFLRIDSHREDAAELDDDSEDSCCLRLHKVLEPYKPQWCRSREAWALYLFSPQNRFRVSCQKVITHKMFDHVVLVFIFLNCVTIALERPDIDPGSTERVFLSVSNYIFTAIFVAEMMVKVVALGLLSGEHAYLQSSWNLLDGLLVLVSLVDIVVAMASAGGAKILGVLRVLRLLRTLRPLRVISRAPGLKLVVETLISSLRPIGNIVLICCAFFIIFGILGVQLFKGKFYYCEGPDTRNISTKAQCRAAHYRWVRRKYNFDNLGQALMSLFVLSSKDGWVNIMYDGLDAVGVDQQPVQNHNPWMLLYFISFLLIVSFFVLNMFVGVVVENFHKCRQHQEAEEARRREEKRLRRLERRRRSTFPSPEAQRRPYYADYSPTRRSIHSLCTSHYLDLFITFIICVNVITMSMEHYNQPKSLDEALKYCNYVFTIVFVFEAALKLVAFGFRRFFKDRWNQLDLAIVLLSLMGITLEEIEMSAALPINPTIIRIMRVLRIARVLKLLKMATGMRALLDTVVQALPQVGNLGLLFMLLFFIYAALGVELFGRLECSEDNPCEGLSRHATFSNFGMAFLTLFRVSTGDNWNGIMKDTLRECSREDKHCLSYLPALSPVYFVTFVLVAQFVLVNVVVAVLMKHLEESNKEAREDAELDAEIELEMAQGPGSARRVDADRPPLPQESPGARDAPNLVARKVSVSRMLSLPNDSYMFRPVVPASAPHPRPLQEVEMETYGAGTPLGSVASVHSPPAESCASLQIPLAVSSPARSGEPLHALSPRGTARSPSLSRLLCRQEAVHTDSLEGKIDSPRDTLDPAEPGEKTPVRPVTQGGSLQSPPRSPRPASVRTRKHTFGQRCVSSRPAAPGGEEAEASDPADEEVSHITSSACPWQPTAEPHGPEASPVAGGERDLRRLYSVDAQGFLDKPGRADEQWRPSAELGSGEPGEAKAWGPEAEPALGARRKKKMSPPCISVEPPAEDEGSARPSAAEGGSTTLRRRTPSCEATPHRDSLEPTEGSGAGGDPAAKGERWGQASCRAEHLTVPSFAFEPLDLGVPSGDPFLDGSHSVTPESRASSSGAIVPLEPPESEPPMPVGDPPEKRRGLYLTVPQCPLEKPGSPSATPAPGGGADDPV
T1 sequence (O43497 whole entry): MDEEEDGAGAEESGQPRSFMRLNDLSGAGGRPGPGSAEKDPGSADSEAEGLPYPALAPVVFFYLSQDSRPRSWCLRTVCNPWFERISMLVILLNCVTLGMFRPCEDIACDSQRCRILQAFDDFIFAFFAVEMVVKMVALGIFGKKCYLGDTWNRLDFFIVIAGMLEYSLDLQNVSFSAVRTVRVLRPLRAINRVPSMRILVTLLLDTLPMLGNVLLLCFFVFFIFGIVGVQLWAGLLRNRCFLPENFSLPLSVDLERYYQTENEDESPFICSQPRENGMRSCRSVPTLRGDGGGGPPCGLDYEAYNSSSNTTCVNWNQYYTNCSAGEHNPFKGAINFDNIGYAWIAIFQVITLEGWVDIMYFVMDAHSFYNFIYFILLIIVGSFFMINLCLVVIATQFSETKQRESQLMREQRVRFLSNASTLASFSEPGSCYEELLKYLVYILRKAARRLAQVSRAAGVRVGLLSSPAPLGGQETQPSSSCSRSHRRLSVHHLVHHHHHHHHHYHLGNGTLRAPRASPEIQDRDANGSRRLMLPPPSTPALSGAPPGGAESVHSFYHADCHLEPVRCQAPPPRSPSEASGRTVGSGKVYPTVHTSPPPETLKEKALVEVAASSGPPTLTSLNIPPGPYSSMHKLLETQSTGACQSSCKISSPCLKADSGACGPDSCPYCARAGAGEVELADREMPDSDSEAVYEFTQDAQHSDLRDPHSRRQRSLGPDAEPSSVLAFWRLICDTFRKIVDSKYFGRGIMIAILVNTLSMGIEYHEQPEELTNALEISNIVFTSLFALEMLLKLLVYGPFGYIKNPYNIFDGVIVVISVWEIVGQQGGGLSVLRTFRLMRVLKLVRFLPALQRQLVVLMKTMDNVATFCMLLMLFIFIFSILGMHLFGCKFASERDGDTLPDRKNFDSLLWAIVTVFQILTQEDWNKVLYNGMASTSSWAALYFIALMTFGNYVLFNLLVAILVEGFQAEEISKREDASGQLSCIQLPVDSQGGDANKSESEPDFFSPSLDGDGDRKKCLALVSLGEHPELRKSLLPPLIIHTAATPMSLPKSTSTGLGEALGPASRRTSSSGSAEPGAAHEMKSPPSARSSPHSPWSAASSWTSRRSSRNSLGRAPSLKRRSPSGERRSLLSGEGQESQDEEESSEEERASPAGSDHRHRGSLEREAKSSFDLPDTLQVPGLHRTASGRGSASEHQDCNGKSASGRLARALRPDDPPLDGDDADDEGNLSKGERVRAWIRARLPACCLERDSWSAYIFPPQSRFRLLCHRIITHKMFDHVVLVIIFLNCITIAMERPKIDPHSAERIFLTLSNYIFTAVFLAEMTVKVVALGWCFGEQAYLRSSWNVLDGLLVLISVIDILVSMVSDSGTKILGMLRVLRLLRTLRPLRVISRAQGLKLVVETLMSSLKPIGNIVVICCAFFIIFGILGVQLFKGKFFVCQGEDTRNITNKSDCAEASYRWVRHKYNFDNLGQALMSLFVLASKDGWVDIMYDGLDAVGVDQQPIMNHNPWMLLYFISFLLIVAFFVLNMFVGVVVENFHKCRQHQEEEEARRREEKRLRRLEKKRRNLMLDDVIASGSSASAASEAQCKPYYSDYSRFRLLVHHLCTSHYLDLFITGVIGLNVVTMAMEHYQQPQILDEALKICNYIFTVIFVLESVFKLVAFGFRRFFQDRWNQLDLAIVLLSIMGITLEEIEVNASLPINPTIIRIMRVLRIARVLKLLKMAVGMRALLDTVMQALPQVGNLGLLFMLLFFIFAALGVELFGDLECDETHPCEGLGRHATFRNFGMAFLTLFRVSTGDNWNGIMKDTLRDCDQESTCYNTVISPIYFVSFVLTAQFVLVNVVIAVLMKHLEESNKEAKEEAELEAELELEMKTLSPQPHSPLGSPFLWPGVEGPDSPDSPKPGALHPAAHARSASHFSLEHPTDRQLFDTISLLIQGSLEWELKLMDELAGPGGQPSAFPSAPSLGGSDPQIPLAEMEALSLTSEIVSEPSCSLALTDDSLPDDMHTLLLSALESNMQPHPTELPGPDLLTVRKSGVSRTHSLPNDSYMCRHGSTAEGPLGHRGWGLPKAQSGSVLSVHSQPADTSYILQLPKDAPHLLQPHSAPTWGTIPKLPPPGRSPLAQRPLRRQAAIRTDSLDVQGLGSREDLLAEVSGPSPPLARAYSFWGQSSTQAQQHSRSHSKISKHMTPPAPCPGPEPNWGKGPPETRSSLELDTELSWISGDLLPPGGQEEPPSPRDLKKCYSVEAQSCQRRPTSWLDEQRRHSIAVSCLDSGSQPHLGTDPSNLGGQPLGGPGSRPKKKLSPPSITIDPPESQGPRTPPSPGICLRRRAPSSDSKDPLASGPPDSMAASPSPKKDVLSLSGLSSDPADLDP

For `Cn1ncc2cc(CC(=O)N[C@@H]3CCN(c4ccc(C(F)(F)F)nc4)C3)ccc21` [Example 144, (R)-2-(1-methyl-1H-indazol-5-yl)-N-(1-(6-(trifluoromethyl)pyridin-3-yl)pyrrolidin-3-yl)acetamide], the IC50 stood at 470 nM at Cav3.1 channel and 22 nM on human Cav3.2 channels.

`COc1cccc(N2CC[C@@H](NC(=O)Cc3ccc(C4CC4)cc3)C2)c1` [Example 175, (R)-2-(4-cyclopropylphenyl)-N-(1-(3-methoxyphenyl)pyrrolidin-3-yl)acetamide]: the IC50 at human Cav3.2 channels was found to be 490 nM.

With `O=C(Cc1ccc(N2CCC(F)(F)C2)cc1)N[C@@H]1CCN(c2cncc(C(F)(F)F)c2)C1` [Example 176, (R)-2-(4-(3,3-difluoropyrrolidin-1-yl)phenyl)-N-(1-(5-(trifluoromethyl)pyridin-3-yl)pyrrolidin-3-yl)acetamide], the concentration for half-maximal inhibition (IC50) on human Cav3.2 channels came out at 7.3 nM.

Consider `CCOC(=O)C(C)(C)Oc1cccc(N2CC[C@@H](NC(=O)Cc3ccc(C4CC4)cc3)C2)c1` [Example 177, Ethyl (R)-2-(3-(3-(2-(4-cyclopropylphenyl)acetamido)pyrrolidin-1-yl)phenoxy)-2-methylpropanoate], for which the IC50 at human Cav3.2 channels was 300 nM.

As for `O=C(Cc1ccc(C2CC2)cc1)N[C@@H]1CCN(c2cccc(O)c2)C1` [Example 178, (R)-2-(4-cyclopropylphenyl)-N-(1-(3-hydroxyphenyl)pyrrolidin-3-yl)acetamide], the IC50 on human Cav3.2 channels turned out to be 590 nM.

As to `O=C(Cc1ccc(C2CC2)cc1)N[C@@H]1CCN(c2cccc(C(F)(F)F)n2)C1` [Example 179, (R)-2-(4-cyclopropylphenyl)-N-(1-(6-(trifluoromethyl)pyridin-2-yl)pyrrolidin-3-yl)acetamide], on human Cav3.2 channels, the IC50 turned out to be 240 nM.

In the case of `COc1cc(OC)nc(N2CC[C@@H](NC(=O)Cc3ccc(C4CC4)cc3)C2)n1` [Example 180, (R)-2-(4-cyclopropylphenyl)-N-(1-(4,6-dimethoxypyrimidin-2-yl)pyrrolidin-3-yl)acetamide], the IC50 at human Cav3.2 channels was 2100 nM.

Regarding `O=C(Cc1ccc(N2CCOCC2)cc1)N[C@@H]1CCN(c2cncc(C(F)(F)F)c2)C1` [Example 181, (R)-2-(4-morpholinophenyl)-N-(1-(5-(trifluoromethyl)pyridin-3-yl)pyrrolidin-3-yl)acetamide], the half-maximal inhibitory concentration (IC50) at human Cav3.2 channels is 25 nM.

As for `O=C(Cc1ccc(C2CC2)cc1)N[C@@H]1CCN(c2cc(C(F)(F)F)ccn2)C1` [Example 182, (R)-2-(4-cyclopropylphenyl)-N-(1-(4-(trifluoromethyl)pyridin-2-yl)pyrrolidin-3-yl)acetamide], at human Cav3.2 channels, the IC50 worked out at 720 nM.

Turning to `O=C(Cc1ccc(C(F)(F)F)cc1)N[C@@H]1CCN(c2ccc(C(F)(F)F)nc2)C1` [Example 183, (R)-2-(4-(trifluoromethyl)phenyl)-N-(1-(6-(trifluoromethyl)pyridin-3-yl)pyrrolidin-3-yl)acetamide], the IC50 on human Cav3.2 channels came out at 200 nM.

Consider `O=C(Cc1ccc(C(F)(F)F)cc1)N[C@@H]1CCN(c2ccc(F)c(C(F)(F)F)c2)C1` [Example 184, (R)—N-(1-(4-fluoro-3-(trifluoromethyl)phenyl)pyrrolidin-3-yl)-2-(4-(trifluoromethyl)phenyl)acetamide], for which the concentration for half-maximal inhibition (IC50) at human Cav3.2 channels is 3000 nM.

As for `CC(C(=O)N[C@@H]1CCN(c2ccc(C(F)(F)F)nc2)C1)c1ccc(C(F)(F)F)cc1` (stereo partly drawn) [Example 185, 2-(4-(Trifluoromethyl)phenyl)-N—((R)-1-(6-(trifluoromethyl)pyridin-3-yl)pyrrolidin-3-yl)propanamide], the 50% inhibitory concentration (IC50) on human Cav3.2 channels turned out to be 1400 nM.

Take `O=C(Cc1ccc2cc[nH]c2c1)N[C@@H]1CCN(c2nc(C(F)(F)F)cs2)C1` [Example 187, (R)-2-(1H-indol-6-yl)-N-(1-(4-(trifluoromethyl)thiazol-2-yl)pyrrolidin-3-yl)acetamide]: the half-maximal inhibitory concentration (IC50) on human Cav3.2 channels was 510 nM.

For the origin of these results see patent publication US20220226299A1 (NIPPON CHEMIPHAR CO., LTD., priority 2019, published 2022).
